Results reported in patent publication US11571459B2, “Methods for treating cancer using PS-targeting antibodies with immuno-oncology agents” (ONCXERNA THERAPEUTICS, INC., priority 2017, dated 2023).

Assays:
[1] = tested on: PS; assay: ELISA binding to PS-coated plates; settings: phospholipid-coated ELISA plates
Method: The 3G4 antibody was produced by immunizing mice with autologous, PS-positive endothelial cells, as reported in Ran et al., 2005. The 3G4 antibody was tested for binding to PS in a standard ELISA in the presence and absence of serum, and was initially characterized as being “serum-independent”, i.e., an antibody that binds to PS in the absence of serum.
In a follow-on study, the binding of the 2aG4 antibody to PS was tested in an ELISA in the presence of varying concentrations of human β2GPI.
These included binding to PS in ELISAs, FACS analyses using PS-positive cells and functional assays in the form of an NFAT surrogate ADCC bioassay (Larson et al., 2013).

[2] = tested on: previously treated non-squamous NSCLC; settings: in vivo
Method: The primary objective of this study was to compare the ORR (CR+PR) among the treatment arms. Secondary objectives included comparing PFS, DR, OS, safety and PK.
Additional blood draws were performed for these patients during Cycles 1 and 2 at specified time points.
Samples from the NSCLC Phase II trial of Example IX (PPHM 0902) were tested using the functional β2GPI assay of Example XII.

[3] = tested on: previously-treated Stage IIIb/IV non-squamous NSCLC; assay: Phase III trial of bavituximab plus docetaxel in NSCLC
Excerpt: This global, double-blind Phase III trial was initiated in 2012. Selection criteria were for patients with Stage IIIb/IV non-squamous NSCLC who progressed on platinum-doublet chemotherapy (should have progressed on appropriate targeted therapy if known EGFR or ALK mutation), with ECOG PS 0-1 and prior immunotherapy allowed (ECOG is the performance status scale defined by the Eastern Cooperative Oncology Group). […] The primary endpoint was overall survival (OS) and secondary endpoints included objective response rate (Independent Central Review, ICR), progression-free survival (ICR), safety, PK, Quality of Life (LCSS) and exploratory biomarkers, including immune correlates.
OS was analyzed by VeriStrat subgroups using Kaplan-Meier statistical methods.
A single cutoff method was first used to assess the patient β2GPI data.
The initial analyses described above prompted further, extensive analyses of the data in 592 evaluable patients. These analyses used a two cutoff method (Klein & Moeschberger, 2003).
Archival tissue obtained at the time of diagnosis was requested, but not required, in the Phase III trial of Example X. Formalin-fixed paraffin-embedded (FFPE) slides were stained with antibodies for a panel of lymphoid (or tumor) cell markers, as described in Feng et al., 2015: CD3+, CD8+, FoxP3+, PD-L1+, CD163+ and CK+ (cytokeratin, an epithelial carcinoma marker) using a mutliplex (6-plex) quantitative immunohistochemistry (IHC) assay (OPAL®, PerkinElmer, Waltham, Mass., USA) and using DAPI. The PD-L1 antibody used was the rabbit anti-PD-L1 antibody termed E1L3N® XP® (Cell Signaling Technology, (CST), Danvers, Mass., Catalogue #13684; Mahoney et al., 2015). Baseline PD-L1 expression was retrospectively scored on tumor cells (TC, i.e., CK+) and PD-L1 expressing tumor cells were classified according to their percentage within the total number of tumor cells using established assays and classifications (Fehrenbacher et al., 2016), as follows: TC3≥50%; TC2≥5% and ≤50%; TC1≥1% and <5%; and TC0<1%. Cox regression models for PD-L1 IHC subgroup populations were used for correlation with OS.
Kaplan-Meier statistical methods and Cox proportional hazard models were utilized to evaluate and contrast the correlation of peripheral (and intratumoral) IFNγ levels with OS based on a data cut from the Phase III trial (Example X) dated Feb.

[4] = tested on: previously untreated stage IV pancreatic cancer; assay: Phase II (PPHM 1002) gemcitabine with or without bavituximab; format: in vivo, human; settings: for median overall survival: at study closure
Method: The primary objective was to compare the OS of patients among the treatment arms. Secondary objectives included comparing PFS, ORR, DR and safety.
Gemcitabine (1000 mg/m^2) was given on days 1, 8, and 15 of each 28-day cycle (4 weeks) until disease progression or unacceptable toxicities. A total of 70 patients were enrolled to the study. In general, the patient population had very extensive disease burden, which may have reduced the response in both arms.
The levels of pre-treatment functional β2GPI ranged from 82.5 to 343.2 μg/ml for all patients. For these 31 patients, the mean level of pre-treatment functional β2GPI (219.2 μg/ml) was consistent with the average reported in the literature.

[5] = Phase I dose escalation study of bavituximab monotherapy in refractory advanced solid tumors: PK, safety
Method: Samples were collected from patients in the 0.1 and 0.3 mg/kg dose cohorts before the study, on days 0, 1, 2, 4, 7, 10, 14, and every 7 days from days 21 to 70. Samples were collected from patients in the 1 and 3 mg/kg dose cohorts before the study, on days 0, 1, 2, 4, 7, 14, 21, 22, 23, 25, and every 7 days from days 28 to 56.

[6] = tested on: previously untreated locally advanced or metastatic non-squamous NSCLC; assay: Phase II (PPHM 1001) paclitaxel/carboplatin with or without bavituximab; format: in vivo, human; settings: functional β2GPI ≥200 μg/mL; bavituximab given with paclitaxel/carboplatin
[7] = target: T1, functional β2GPI (Homo sapiens, UniProt P02749); assay: Functional β2GPI assay (PS-coated plate, bavituximab-HRP); format: binding; settings: for concentration read out in functional β2GPI assay: recombinant or plasma-derived β2GPI; for Conc. (ng/mL) read out in Functional β2GPI Assay: PS-coated plate, bavituximab-HRP, nicked vs intact β2GPI samples
T1 construct: Samples of β2GPI purified from human plasma and recombinant human β2GPI were both treated with plasmin; from tissue; host or cells: human plasma / serum
T1 sequence (P02749 20-345): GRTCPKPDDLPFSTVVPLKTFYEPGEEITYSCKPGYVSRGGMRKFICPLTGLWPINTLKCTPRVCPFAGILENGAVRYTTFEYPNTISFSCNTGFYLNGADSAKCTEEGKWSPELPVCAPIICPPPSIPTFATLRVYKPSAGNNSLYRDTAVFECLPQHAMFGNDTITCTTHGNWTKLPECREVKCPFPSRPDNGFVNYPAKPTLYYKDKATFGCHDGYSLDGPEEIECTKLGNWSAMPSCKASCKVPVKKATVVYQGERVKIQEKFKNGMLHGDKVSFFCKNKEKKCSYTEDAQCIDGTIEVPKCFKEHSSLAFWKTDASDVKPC
Excerpt: The following particular materials and equipment were used in the assay to generate the Results presented in this example under Sections B1 and B2. Materials: 96-well medium binding flat bottom plates (Greiner BioOne, cat #655001); 96-well non-binding round bottom plates (Costar, cat #3605); hexane (Sigma, cat #32293); PS antigen (Sigma, cat #P6641); ovalbumin (Sigma, cat #A5503); chromogenic substrate, tetramethylbenzidine (TMB), (KPL, cat #50-76-00); 2M H2SO4 (Fisher, Cat #SA818-4); plate covers (Fisher 015-027-11); adhesive plate sealer (VWR 232701); reagent reservoirs (VistaLab Cat #3054-1000). 1.5 mL microcentrifuge tubes, 50 mL conical tubes and 15 mL conical tubes were also utilized.
The Wash Buffer is IX phosphate-buffered saline (PBS) and the Blocking Buffer is 2% Ovalbumin in IX PBS.
The bavituximab antibody was conjugated to horseradish peroxidase (HRP) to prepare a bavituximab-HRP detection agent for use in the assay. The conjugation was performed using EZ-Link® Plus Activated Peroxidase (Thermo Scientific, Cat #31487) following the procedure for conjugating activated peroxidase to an antibody at pH 7.2 provided by the manufacturer. […] This was added to 1 mg of lyophilized EZ-Link Plus activated peroxidase to reconstitute. Immediately following reconstitution, 10 μL of 5M sodium cyanoborohydride solution was added to the reaction and incubated for 1 hour at room temperature. Once incubation was completed, 20 μL of quenching buffer was added and incubated for 15 minutes at room temperature. Conjugated bavituximab-HRP (1 mg/mL) was stored at 4° C. for up to 4 weeks.
The ELISA plates were coated with the PS antigen as follows: 5 μg/mL PS antigen was prepared and diluted into 6 mL of hexane in a fume hood with the blower off. 50 μL of PS solution was added to each well using a 12-channel pipette. The fume hood blower was turned back on and the hexane allowed to evaporate for 30-45 minutes, typically 30 minutes.
The PS-coated ELISA plates were blocked as follows: 100 mL per plate of the Blocking Buffer (2% Ovalbumin in IX PBS) was prepared. 200 μL of Blocking Buffer was added to each well using a 12-channel pipette.
The β2GPI standards for the positive control were obtained from Haematologic Technologies, Inc. (HTI; cat #B2G1-0001-C; 1.0 mg/ml) in a buffer of 0.2 M Glycine, 0.15 M NaCl, pH 7.4. […]

[8] = 70% of targeted OS events reached
[9] = about 85% of targeted OS events

Molecule: 2aG4: mouse IgG2a chimeric version of the 3G4 antibody
- binding to phospholipids in standard ELISA [1]: essentially the same affinity and binding profile as the 3G4 antibody

Molecule: CC(=O)O[C@@]12CO[C@@H]1C[C@H](O)[C@@]1(C)C(=O)[C@H](O)C3=C(C)[C@@H](OC(=O)[C@H](O)[C@@H](NC(=O)OC(C)(C)C)c4ccccc4)C[C@@](O)([C@@H](OC(=O)c4ccccc4)[C@H]21)C3(C)C [docetaxel, reference compound]
- pharmacokinetic drug-drug interaction [2]: exhibited similar pharmacokinetic characteristics with or without the administration of bavituximab
- median OS ([3]; 12 months follow-up, about 85% of targeted OS events): 10.9 months
- mOS [3, 8]: 10.8 months
- median PFS [3, 8]: 3.9 months
- mOS ([3]; IFNγ high, no subsequent IO): 9.2 months
- mOS ([3]; IFNγ high, received subsequent IO): 13.5 months
- mOS ([3]; IFNγ low, no subsequent IO): 10.8 months
- mOS ([3]; IFNγ low, received subsequent IO): 12.1 months
- mOS ([3]; VS Good patients (VeriStrat)): 11.8 months
- mOS ([3]; VS Poor patients (VeriStrat)): 4.7 months
- Grade 3 or higher adverse events [3, 9]: 60%
- ORR [3, 9]: 11%
- PFS [3, 9]: 4.1 months
- mOS ([3]; functional β2GPI 200-240 μg/mL): 7.7 months
- mOS ([3]; functional β2GPI ≥200 μg/mL, 578 evaluable patients): 9.4 months
- mOS ([3]; functional β2GPI ≥200 μg/mL, 592 evaluable patients): 10.1 months
- mOS ([3]; functional β2GPI ≥200 μg/mL, with subsequent IO): 12.3 months
- mOS ([3]; functional β2GPI ≥200 μg/mL, without subsequent IO): 9.2 months
- mOS ([3]; higher PD-L1 expression (TC1/2/3, ≥1%)): 10.4 months
- HR, PD-L1 TC0 versus TC1/2/3 within arm ([3]; in vivo): 0.93
- mOS ([3]; negative PD-L1 expression (TC0, <1%)): 11.1 months
- mOS ([3]; patients receiving subsequent IO): 12.6 months
- mOS ([3]; patients who did not receive subsequent IO): 10.2 months
- mOS ([3]; pre-treatment serum IFNγ high (≥ median 0.093 μg/mL)): 10.6 months
- mOS ([3]; pre-treatment serum IFNγ low (< median 0.093 μg/mL)): 11.1 months
- mOS ([3]; β2GPI less than 200 μg/mL, with subsequent IO): 18.6 months
- mOS ([3]; β2GPI less than 200 μg/mL, without subsequent IO): 11.6 months

Molecule: Nc1ccn([C@@H]2O[C@H](CO)[C@@H](O)C2(F)F)c(=O)n1 [gemcitabine, reference compound]
- median overall survival [4]: 5.2 months

Molecule: Bavi
- Bavi ([5]; Cmax at 3 mg/kg expressed as molar concentration): 0.389 µM
- Cmax ([5]; bavituximab 3 mg/kg, maximum concentration in blood (Example II; Gerber et al., 2011)): 56.4 µg/mL

Molecule: bavituximab plus gemcitabine: treatment arm: gemcitabine with weekly 3 mg/kg bavituximab
- median overall survival [4]: 5.6 months
- TEAE anemia ([4]; in vivo): 35.3%
- TEAE fatigue, constipation and anorexia (each) ([4]; in vivo): 32.4%
- TEAE nausea ([4]; in vivo): 44.1%
- response rate and survival probability at 1 year compared with gemcitabine only ([4]; in vivo): numerically higher response rate and survival probability at 1 year

Molecule: paclitaxel/carboplatin [reference compound]
- mOS [6]: 13.2 months

B1: β2GPI: plasmin-free (intact) β2GPI purified from human plasma or recombinant (protein)
chain: T1 sequence (P02749 20-345)
- concentration read out in functional β2GPI assay [7]: ~136 ng/mL

B2: plasmin-treated β2GPI: β2GPI treated with plasmin, majority nicked, does not bind PS (protein)
chain: T1 sequence (P02749 20-345)
- concentration read out in functional β2GPI assay [7]: 33 ng/mL

B3: Recombinant Plasmin-free β2GPI (protein, UniProt P02749 20-345, looked up)
Beta-2-glycoprotein 1: T1 sequence (P02749 20-345)
modifications: recombinant, plasmin-free
- Conc. (ng/mL) read out in Functional β2GPI Assay [7]: 136.42 ng/mL

B4: Human Plasmin-free β2GPI (protein, UniProt P02749 20-345, looked up)
Beta-2-glycoprotein 1: T1 sequence (P02749 20-345)
modifications: plasmin-free
- Conc. (ng/mL) read out in Functional β2GPI Assay [7]: 136.42 ng/mL
